From patent US4438107A, “Aminoglycosides and use thereof” (Kowa Company, Ltd., priority 1981, dated 1984)
≈ marks a conversion by molar mass, not a printed value. Like-named read-outs stand apart in the source and are kept apart here.

Assays:
[1] = test system: Pseudomonas aeruginosa No. 99; experiment: antibacterial spectrum, minimal inhibitory concentration; assay type: cell-based
[2] = test system: Pseudomonas aeruginosa GN315; experiment: as above; assay type: cell-based
[3] = test system: Escherichia coli R-82; experiment: as above; assay type: cell-based; conditions: R82, resistance mechanism APH(3')II
[4] = test system: Escherichia coli R-81; experiment: as above; conditions: R81, read-out: Minimal inhibitory concentration
[5] = test system: Pseudomonas aeruginosa TK-157; experiment: as above; assay type: cell-based
[6] = test system: Escherichia coli R-101; experiment: as above; assay type: cell-based
[7] = test system: Escherichia coli K-12 ML1410; experiment: as above; assay type: cell-based; conditions: K12ML1410
[8] = test system: Klebsiella pneumoniae PCI 602; experiment: as above; assay type: cell-based
[9] = test system: Bacillus subtilis ATCC 6633; experiment: as above; assay type: cell-based; conditions: ATCC6633
[10] = test system: Streptococcus faecalis; experiment: as above; assay type: cell-based; conditions: Enterococcus faecalis
[11] = test system: Escherichia coli R-176; experiment: as above; assay type: cell-based; conditions: R176, resistance mechanism AAC(3)II
[12] = test system: Pseudomonas aeruginosa TI-13; experiment: as above; assay type: cell-based
Text: | Resistance mechanism: ^a APH(3')I,

[13] = test system: Bacillus anthracis; experiment: microbe, parasite or virus in culture; assay type: cell-based; conditions: read-out: Minimal inhibitory concentration
[14] = test system: Serratia marcescens; experiment: antibacterial spectrum, minimal inhibitory concentration; assay type: cell-based; conditions: read-out: Minimal inhibitory concentration
[15] = test system: Pseudomonas aeruginosa No. 12; experiment: as above; assay type: cell-based
[16] = test system: Escherichia coli JR88/W677; experiment: as above; assay type: cell-based; conditions: resistance mechanism AAC(3)I
[17] = test system: Escherichia coli NIHJ JC-2; experiment: as above; assay type: cell-based
[18] = test system: Staphylococcus aureus 209P JC-1; experiment: as above; assay type: cell-based
[19] = test system: Proteus vulgaris OX-19; experiment: as above; assay type: cell-based
[20] = test system: Proteus inconstans GN1554; experiment: as above; assay type: cell-based; conditions: Providencia alcalifaciens
[21] = test system: Pseudomonas aeruginosa K-11; experiment: as above; assay type: cell-based
[22] = test system: Pseudomonas aeruginosa A3; experiment: as above; assay type: cell-based
[23] = test system: Bacillus cereus; experiment: as above; assay type: cell-based
[24] = Pseudomonas aeruginosa No. 99, resistance mechanism AAC(3)I, read-out: Minimal inhibitory concentration
[25] = Pseudomonas aeruginosa GN315, resistance mechanism AAC(6')IV, read-out: Minimal inhibitory concentration
[26] = TK157, Pseudomonas aeruginosa TK-157, resistance mechanism APH(3')II, read-out: Minimal inhibitory concentration
[27] = Escherichia coli, R101, read-out: Minimal inhibitory concentration
[28] = PCI602, Klebsiella pneumoniae PCI 602, read-out: Minimal inhibitory concentration
[29] = TI13, Pseudomonas aeruginosa TI-13, resistance mechanism APH(3')I, read-out: Minimal inhibitory concentration
[30] = Escherichia coli, NIHJJC2, read-out: Minimal inhibitory concentration
[31] = OX19, Proteus vulgaris OX-19, read-out: Minimal inhibitory concentration
[32] = Proteus inconstans GN1554, resistance mechanism AAC(2'), read-out: Minimal inhibitory concentration
[33] = K11, Pseudomonas aeruginosa K-11, read-out: Minimal inhibitory concentration
[34] = Pseudomonas aeruginosa A3, read-out: Minimal inhibitory concentration
[35] = Pseudomonas aeruginosa, NO.99, read-out: Minimal inhibitory concentration
[36] = Pseudomonas aeruginosa, GN315, read-out: Minimal inhibitory concentration
[37] = Pseudomonas aeruginosa, TK157, read-out: Minimal inhibitory concentration
[38] = Pseudomonas aeruginosa, TI13, read-out: Minimal inhibitory concentration
[39] = Proteus vulgaris, OX19, read-out: Minimal inhibitory concentration
[40] = GN1554, read-out: Minimal inhibitory concentration
[41] = Pseudomonas aeruginosa, K11, read-out: Minimal inhibitory concentration
[42] = Pseudomonas aeruginosa, A3, read-out: Minimal inhibitory concentration
[43] = R101, Escherichia coli R-101, resistance mechanism AAD(2"), read-out: Minimal inhibitory concentration
[44] = Klebsiella pneumoniae, PCI602, read-out: Minimal inhibitory concentration
[45] = NIHJJC2, Escherichia coli NIHJ JC-2, read-out: Minimal inhibitory concentration

Structure (SMILES) | MIC [1, 24] | MIC [3] | MIC [4] | MIC [5, 26] | MIC [6, 27] | MIC [7] | MIC [8, 28] | MIC [9] | MIC [10] | MIC [11] | MIC [13] | MIC [14] | MIC [15] | MIC [16] | MIC [18] | MIC [19, 31] | MIC [21, 33] | MIC [23] | MIC [20, 40] | MIC [22, 42] | further results
COC1CC(N)C(OC2OC(C(C)N)CCC2N)C(O)C1N(C)C(=O)CN (stereo not drawn) [KA-6606 I, reference compound] | > 100 µg/mL | 3.13 µg/mL (≈ 8.04 µM) | 3.13 µg/mL (≈ 8.04 µM) | 6.25 µg/mL (≈ 16 µM) | 3.13 µg/mL (≈ 8.04 µM) | 3.13 µg/mL (≈ 8.04 µM) | 1.56 µg/mL (≈ 4.01 µM) | 0.2 µg/mL (≈ 0.513 µM) | 25 µg/mL (≈ 64.2 µM) | 3.13 µg/mL (≈ 8.04 µM) | 0.2 µg/mL (≈ 0.513 µM) | 3.13 µg/mL (≈ 8.04 µM) | 0.39 µg/mL (≈ 1 µM) | > 100 µg/mL | 0.39 µg/mL (≈ 1 µM) | 1.56 µg/mL (≈ 4.01 µM) | 12.5 µg/mL (≈ 32.1 µM) | 1.56 µg/mL (≈ 4.01 µM) | – | – | MIC [2, 25]: 12.5 µg/mL (≈ 32.1 µM); MIC [12, 29]: 6.25 µg/mL (≈ 16 µM); MIC [17, 30]: 3.13 µg/mL (≈ 8.04 µM); MIC [20, 32]: 6.25 µg/mL (≈ 16 µM); MIC [22, 34]: 6.25 µg/mL (≈ 16 µM)
CC(N)C1CCC(N)C(OC2C(N)CC(OCC(O)CCN)C(N(C)C(=O)CN)C2O)O1 (stereo not drawn) [B, 5-O-(4-amino-2-hydroxybutyl)-5-de-O-methyl-KA-6606 I] | – | 3.13 µg/mL (≈ 6.77 µM) | 3.13 µg/mL (≈ 6.77 µM) | – | 3.13 µg/mL (≈ 6.77 µM) | 3.13 µg/mL (≈ 6.77 µM) | 1.56 µg/mL (≈ 3.37 µM) | ≤ 0.1 µg/mL | 50 µg/mL (≈ 108 µM) | 6.25 µg/mL (≈ 13.5 µM) | ≤ 0.1 µg/mL | 1.56 µg/mL (≈ 3.37 µM) | 0.39 µg/mL (≈ 0.843 µM) | 3.13 µg/mL (≈ 6.77 µM) | 0.39 µg/mL (≈ 0.843 µM) | – | – | 1.56 µg/mL (≈ 3.37 µM) | 6.25 µg/mL (≈ 13.5 µM) | 3.13 µg/mL (≈ 6.77 µM) | MIC [1, 35]: 6.25 µg/mL (≈ 13.5 µM); MIC [2, 36]: 6.25 µg/mL (≈ 13.5 µM); MIC [5, 37]: 3.13 µg/mL (≈ 6.77 µM); MIC [12, 38]: 3.13 µg/mL (≈ 6.77 µM); MIC [17, 30]: 3.13 µg/mL (≈ 6.77 µM); MIC [19, 39]: 3.13 µg/mL (≈ 6.77 µM); MIC [21, 41]: 6.25 µg/mL (≈ 13.5 µM)
CC(N)C1CCC(N)C(OC2C(N)CC(O[C@H]3O[C@H](CO)[C@@H](O)[C@H](N)[C@H]3O)C(N(C)C(=O)CN)C2O)O1 (stereo partly drawn) [E, 5-O-(3-amino-3-deoxy-α-D-glucopyranosyl)-5-de-O-methyl-KA-6606 I] | 12.5 µg/mL (≈ 23.3 µM) | 6.25 µg/mL (≈ 11.6 µM) | 6.25 µg/mL (≈ 11.6 µM) | – | – | 6.25 µg/mL (≈ 11.6 µM) | – | 0.2 µg/mL (≈ 0.373 µM) | 50 µg/mL (≈ 93.2 µM) | 6.25 µg/mL (≈ 11.6 µM) | 0.2 µg/mL (≈ 0.373 µM) | 1.56 µg/mL (≈ 2.91 µM) | 0.39 µg/mL (≈ 0.727 µM) | 1.56 µg/mL (≈ 2.91 µM) | 0.39 µg/mL (≈ 0.727 µM) | 3.13 µg/mL (≈ 5.83 µM) | 3.13 µg/mL (≈ 5.83 µM) | 0.78 µg/mL (≈ 1.45 µM) | 6.25 µg/mL (≈ 11.6 µM) | 6.25 µg/mL (≈ 11.6 µM) | MIC [2, 36]: 6.25 µg/mL (≈ 11.6 µM); MIC [5, 37]: 1.56 µg/mL (≈ 2.91 µM); MIC [6, 43]: 3.13 µg/mL (≈ 5.83 µM); MIC [8, 44]: 1.56 µg/mL (≈ 2.91 µM); MIC [12, 29]: 3.13 µg/mL (≈ 5.83 µM); MIC [17, 45]: 3.13 µg/mL (≈ 5.83 µM)
CC(N)C1CCC(N)C(OC2C(N)CC(O[C@@H]3O[C@H](CO)[C@@H](O)[C@H](O)[C@H]3O)C(N(C)C(=O)CN)C2O)O1 (stereo partly drawn) [D, 5-de-O-methyl-5-O-(β-D-glucopyranosyl)-KA-6606 I] | 25 µg/mL (≈ 46.5 µM) | 12.5 µg/mL (≈ 23.3 µM) | 12.5 µg/mL (≈ 23.3 µM) | 6.25 µg/mL (≈ 11.6 µM) | – | 12.5 µg/mL (≈ 23.3 µM) | – | 0.39 µg/mL (≈ 0.725 µM) | > 100 µg/mL | 3.13 µg/mL (≈ 5.82 µM) | 0.2 µg/mL (≈ 0.372 µM) | 3.13 µg/mL (≈ 5.82 µM) | 0.78 µg/mL (≈ 1.45 µM) | 3.13 µg/mL (≈ 5.82 µM) | 0.78 µg/mL (≈ 1.45 µM) | 6.25 µg/mL (≈ 11.6 µM) | 25 µg/mL (≈ 46.5 µM) | 6.25 µg/mL (≈ 11.6 µM) | – | 12.5 µg/mL (≈ 23.3 µM) | MIC [2, 25]: 25 µg/mL (≈ 46.5 µM); MIC [6, 43]: 6.25 µg/mL (≈ 11.6 µM); MIC [8, 44]: 3.13 µg/mL (≈ 5.82 µM); MIC [12, 38]: 12.5 µg/mL (≈ 23.3 µM); MIC [17, 45]: 6.25 µg/mL (≈ 11.6 µM); MIC [20, 32]: 25 µg/mL (≈ 46.5 µM)
CC(N)C1CCC(N)C(OC2C(N)CC(OCC(O)CN)C(N(C)C(=O)CN)C2O)O1 (stereo not drawn) [A, 5-O-(3-amino-2-hydroxypropyl)-5-de-O-methyl-KA-6606 I] | – | 3.13 µg/mL (≈ 6.98 µM) | 3.13 µg/mL (≈ 6.98 µM) | 1.56 µg/mL (≈ 3.48 µM) | 3.13 µg/mL (≈ 6.98 µM) | 3.13 µg/mL (≈ 6.98 µM) | 1.56 µg/mL (≈ 3.48 µM) | 0.2 µg/mL (≈ 0.446 µM) | 50 µg/mL (≈ 111 µM) | 6.25 µg/mL (≈ 13.9 µM) | ≤ 0.1 µg/mL | 1.56 µg/mL (≈ 3.48 µM) | 0.39 µg/mL (≈ 0.869 µM) | 6.25 µg/mL (≈ 13.9 µM) | 0.39 µg/mL (≈ 0.869 µM) | – | – | 0.78 µg/mL (≈ 1.74 µM) | 6.25 µg/mL (≈ 13.9 µM) | – | MIC [1, 35]: 6.25 µg/mL (≈ 13.9 µM); MIC [2, 36]: 3.13 µg/mL (≈ 6.98 µM); MIC [12, 38]: 3.13 µg/mL (≈ 6.98 µM); MIC [17, 30]: 3.13 µg/mL (≈ 6.98 µM); MIC [19, 39]: 3.13 µg/mL (≈ 6.98 µM); MIC [21, 41]: 3.13 µg/mL (≈ 6.98 µM); MIC [22, 34]: 1.56 µg/mL (≈ 3.48 µM)
CC(N)C1CCC(N)C(OC2C(N)CC(OCC(O)CO)C(N(C)C(=O)CN)C2O)O1 (stereo not drawn) [C, 5-de-O-methyl-5-O-(2,3-dihydroxypropyl)-KA-6606 I] | 25 µg/mL (≈ 55.6 µM) | 6.25 µg/mL (≈ 13.9 µM) | 6.25 µg/mL (≈ 13.9 µM) | 12.5 µg/mL (≈ 27.8 µM) | 6.25 µg/mL (≈ 13.9 µM) | 6.25 µg/mL (≈ 13.9 µM) | 0.78 µg/mL (≈ 1.74 µM) | 0.2 µg/mL (≈ 0.445 µM) | 100 µg/mL (≈ 222 µM) | 6.25 µg/mL (≈ 13.9 µM) | ≤ 0.1 µg/mL | 3.13 µg/mL (≈ 6.96 µM) | 1.56 µg/mL (≈ 3.47 µM) | 6.25 µg/mL (≈ 13.9 µM) | 0.39 µg/mL (≈ 0.868 µM) | 3.13 µg/mL (≈ 6.96 µM) | 12.5 µg/mL (≈ 27.8 µM) | 3.13 µg/mL (≈ 6.96 µM) | 6.25 µg/mL (≈ 13.9 µM) | 6.25 µg/mL (≈ 13.9 µM) | MIC [2, 25]: 12.5 µg/mL (≈ 27.8 µM); MIC [12, 29]: 12.5 µg/mL (≈ 27.8 µM); MIC [17, 45]: 3.13 µg/mL (≈ 6.96 µM)
